From patent publication US20190142949A1, “COVALENT CONJUGATES” (GLAXOSMITHKLINE INTELLECTUAL PROPERTY DEVELOPMENT LIMITED, priority 2015, published 2019)

Legend:
[1] = target: T1, Bromodomain BRD4 Binding Domain 1 (BD1) [BRD4 (Y390A)] (Homo sapiens, UniProt O60885, Y390A); assay: TR-FRET binding assay, Bromodomain BRD4 BD1 mutant assay; details: for IC50: TR-FRET, BRD4 (Y390A) 10 nM, Alexa Fluor647 ligand at Kd, read-out: pIC50 in the BRD4 BD1 assay (converted)
T1 construct: made in house; host or cells: E. coli (pET15b vector)
Procedure: Binding was assessed using a time resolved fluorescent resonance energy transfer binding assay. This utilises a 6 His purification tag at the N-terminal of the proteins as an epitope for an anti-6 His antibody labeled with Europium chelate (PerkinElmer AD0111) allowing binding of the Europium to the proteins which acts as the donor fluorophore. A small molecule, high affinity binder of the bromodomain BRD4 has been labeled with Alexa Fluor647 (Reference Compound X) and this acts as the acceptor in the FRET pair.
In the absence of a competing compound, excitation of the Europium causes the donor to emit at λ618 nm which excites the Alexa labelled bromodomain binding compound leading to an increased energy transfer that is measurable at λ647 nM. In the presence of a sufficient concentration of a compound that can bind these proteins, the interaction is disrupted leading to a quantifiable drop in fluorescent resonance energy transfer.
The binding of Examples 1 to 11 to Bromodomain BRD4 was assessed using mutated proteins to detect differential binding to Binding Domain 1 (BD1) on the bromodomain. These single residue mutations in the acetyl lysine binding pocket greatly lower the affinity of the fluoroligand (Reference Compound X) for the mutated domain (>1000 fold selective for the non-mutated domain). Therefore in the final assay conditions, binding of the fluoroligand to the mutated domain cannot be detected and subsequently the assay is suitable to determine the binding of compounds to the single non-mutated bromodomain.
Recombinant Human Bromodomain [BRD4 (Y390A)] was expressed in E colicells (pET15b vector) with a 6-His tag at the N-terminal. […]
All assay components were dissolved in buffer composition of 50 mM HEPES pH7.4, 50 mM NaCl, 5% Glycerol, 1 mM DTT and 1 mM CHAPS. […] Plates were then read on the Envision platereader, (λex=317 nm, donor λem=615 nm; acceptor λem=665 nm; Dichroic LANCE dual). Time resolved fluorescent intensity measurements were made at both emission wavelengths and the ratio of acceptor/donor was calculated and used for data analysis. […]

[2] = test system: LPS induced MCP-1 production from human whole blood; assay: LPS induced MCP-1 production from human whole blood; assay type: cell-based; details: LPS 200 ng/mL, 18-24 hours, read-out: pIC50, LPS induced MCP-1 production (converted)
Procedure: Activation of monocytic cells by agonists of toll-like receptors such as bacterial lipopolysaccharide (LPS) results in production of key inflammatory mediators including MCP-1. Such pathways are widely considered to be central to the pathophysiology of a range of auto-immune and inflammatory disorders. Blood is collected in a tube containing Sodium heparin (Leo Pharmaceuticals) (10 units of heparin/mL of blood). 96-well compound plates containing 1 μL test sample in 100% DMSO were prepared (two replicates on account of donor variability). 130 μL of whole blood was dispensed into each well of the 96-well compound plates and incubated for 30 min at 37° C., 5% CO2. 10 μL of lipopolysaccharide (from Salmonella typhosa; L6386) made up in PBS (200 ng/mL final assay concentration) was added to each well of the compound plates. The plates were then placed in the humidified primary cell incubator for 18-24 hours at 37° C., 5% CO2. 140 μL of PBS was added to all wells of the compound plates containing blood. The plates were then sealed and centrifuged for 10 mins at 2500 rpm. […] 150 μL of 2×MSD Read Buffer T (stock 4×MSD Read Buffer T was diluted 50:50 with de-ionised water) was then added to each well and the plates read on the MSD Sector Imager 6000. Concentration response curves for each compound were generated from the data and an IC50 value was calculated.

Compound | IC50 [1] | IC50 [2] | selectivity of the fluoroligand for the non-mutated domain over the mutated domain ([1]; single residue mutations in the acetyl lysine binding pocket)
Cc1cc(-c2nc3cc(CN[C@@H](CC(C)C)C(=O)OC4CCCC4)ccc3n2CC2CCOCC2)c[nH]c1=O [Example 3, (S)-cyclopentyl 4-methyl-2-(((2-(5-methyl-6-oxo-1,6-dihydropyridin-3-yl)-1-((tetrahydro-2H-pyran-4-yl)methyl)-1H-benzo[d]imidazol-5-yl)methyl)amino)pentanoate] | 794 nM | 79.4 nM | –
Cc1cc(-c2nc3ccccc3n2CC2CCOCC2)c[nH]c1=O [Example 10, 3-methyl-5-(1-((tetrahydro-2H-pyran-4-yl)methyl)-1H-benzo[d]imidazol-2-yl)pyridin-2(1H)-one] | 398 nM | 2510 nM | –
COc1ccc2c(c1)C(c1ccc(Cl)cc1)=N[C@@H](CC(=O)NCCCCCNC(=O)CCCCCC1(C)/C(=C/C=C/C=C/C3=[N+](CCCCS(=O)(=O)O)c4ccc(S(=O)(=O)O)cc4C3(C)C)N(CCCCS(=O)(=O)[O-])c3ccc(S(=O)(=O)O)cc31)c1nnc(C)n1-2 (some centres unmarked) [Reference Compound X, reference compound] | – | – | > 1000 fold
